“And” between values parts separate entries of the source, which are not always exact repeats. Identical values can stand only once. One block for each compound: values may come before it.
Columns and labels:
[1] = tested on: patients with advanced solid tumors; assay: Phase I dose-escalation trial: safety and tolerability (TEAEs, DLTs, MTD, RP2D)
Procedure: The study was carried out in compliance with the International Council for Harmonisation Good Clinical Practices, including the ethical principles of the Declaration of Helsinki. All patients provided signed informed consent before any study-specific procedures were carried out.
For determination of dose escalation, all toxicities, all available PK, and other relevant patient data occurring during the first cycle were considered. In addition, safety in patients ongoing in repeat cycles at lower doses was also taken into consideration by the Cohort Review Committee (CRC; consisting of investigators and the medical monitor), when making dose-escalation decisions. The determination of RP2D included the assessment of acute and chronic toxicities and tolerability (missing doses, dose reductions, etc.) and was informed by the experience of the totality of data. The maximum tolerated dose (MTD) was defined as the highest dose level at which one or fewer of six patients experienced dose-limiting toxicities (DLTs). […] A dose reduction at or after cycle 2 was granted in accordance with dose modification guidelines if, in the opinion of the investigator, a dose reduction was in the best interest of the patient.
Safety was monitored throughout the study.

[2] = tested on: tumor cells in culture; assay: Predicted ED95 against tumor cells in culture (nonclinical data); assay type: cell-based
[3] = Pharmacokinetics in patients (plasma and tumor biopsy, LC-MS/MS)
Procedure: (§1) Blood was obtained from all patients and collected in anticoagulant tubes (K2-EDTA). Plasma samples were stored at −80°C until analysis (both drugs were validated as stable under these storage conditions). The PK analysis population included all patients who received at least one dose of AMXT 1501 and had at least one quantifiable AMXT 1501 plasma concentration postdose.

[4] = tested on: polyamine transport in T cells; assay: Whole blood assay: uptake of fluorescently labeled spermine analog by activated T cells (flow cytometry); assay type: cell-based, human
Procedure: To evaluate the target engagement activity of AMXT 1501 after administration, an ex vivo pharmacodynamic assay assessing lymphocyte spermine uptake and inhibition of uptake by AMXT 1501 was developed.
The purpose of the whole blood assay is to quantify the inhibition of polyamine transport in T cells in human subjects receiving AMXT 1501. Whole blood collected from subjects receiving AMXT 1501 was diluted with serum-free media and stimulated with anti-CD3 and anti-CD28 to drive T-cell activation and proliferation for a total of 3 days. During the last 12-18 h of culture, a fluorescently labeled spermine analog (compound 5)[38] was added to the in vitro culture to monitor polyamine uptake into cells. The functional activity (inhibitory effect) of AMXT 1501 on compound 5 uptake by T cells is then determined using flow cytometry by measuring the frequency and mean fluorescence intensity of compound 5+ T cells. Comparisons were made between the uptake in the pretreatment sample and samples taken over time postdose.
An ex vivo blood-based pharmacodynamic assay was developed to measure the inhibition of uptake of a fluorescently labeled polyamine analog by AMXT 1501 into activated CD4+ lymphocytes in culture. Using a fluorescence-activating cell sorting system, tracking of the cellular uptake of the fluorescence of this labeled polyamine was followed after CD3/CD28 activation.

[5] = clinical; details: human, oral
Procedure: as §1

[6] = tested on: polyamine transport; parameters: method as in PMID 19281226; details: without crossing the cell membrane; cited from earlier work
[7] = whole human blood samples treated with 0-2000 nM AMXT 1501, absence of DFMO

SMILES: CCCCCCCCCCCCCCCC(=O)NCCCC[C@@H](N)C(=O)NCCCNCCCCNCCCN [AMXT 1501, AMXT 1501 dicaprate]
AMXT 1501 dose relationship with proportions of patients with TEAEs, treatment-related TEAEs or SAEs, discontinuation, dose interruption ([1]; human, in vivo): no strong evidence for any AMXT 1501 dose relationship | RP2D of AMXT 1501 in the combination ([1]; in combination with DFMO 500 mg b.i.d.): 600 mg b.i.d. | MTD ([1]; part 1, when given with DFMO 250 mg b.i.d.): 1800 mg o.d. | Part 1 AMXT 1501 recommended phase II dose (RP2D) ([1]; part 1, with DFMO 250 mg b.i.d.): 1800 mg o.d. | predicted effective dose 95% (ED95) ([2]; in combination with DFMO, nonclinical data): 100 nM | AMXT 1501 exposure based on mean Cmax versus dose ([3]; human, in vivo): near dose-proportional | Accumulation of AMXT 1501 after repeat dosing ([3]; human, in vivo): up to 10 fold | Effect of DFMO administration on AMXT 1501 exposure ([3]; human, in vivo): no consistent effect | Predose AMXT 1501 plasma concentration ([3]; human, in vivo): 296 ng/mL | AMXT 1501 steady state obtained by ([3]; human, in vivo, po): cycle 1 day 14 | Inhibition of fluorescent marker transport with DFMO added to the culture ([4]; DFMO added to the culture): still able to potently inhibit this transport | Target engagement in samples taken over time following dosing versus pretreatment ([4]; ex vivo, patients' blood after oral dosing): sustained AMXT 1501 target engagement activity | Concentration of maximal fluorescent-labeled spermine uptake inhibition [4, 7]: 250 nM | half maximum inhibitory concentration (ED50) [4, 7]: ~75 nM | Kp ([5]; tumor biopsy / plasma): 12 | concentration at 30 days of treatment ([5]; tumor biopsy): 3480 ng/mL and 6.12 µM | Blocks cellular uptake of spermidine [6]: nanomolar range

DFMO exposure versus dose ([3]; between the 500 and 1000 mg/day dose levels): approximately dose-proportional | Change in DFMO exposure with repeat dosing ([3]; human, in vivo): no substantial change | Effect of AMXT 1501 dose level on DFMO exposure ([3]; human, in vivo): no apparent effect | Achievement of predicted DFMO ED95 concentration (100 μM) by oral delivery ([3]; in combination with AMXT 1501): unable to achieve this level
SMILES: NCCCC(N)(C(=O)O)C(F)F (centres unmarked) [DFMO, difluoromethylornithine, reference compound]
predicted ED95 concentration [2]: 100 μM and 18 200 ng/ml | Effect of DFMO addition on uptake of the fluorescent marker ([4]; addition to the culture): increased the uptake of the fluorescent marker

Source: publication PMC12451337 (ESMO Open, 2025)
